In the CheMixHub viscosity set:
± gives the uncertainty stated by the source.

Test: xn = mol fraction of the nth substance listed

## COC(C)=O + Cc1ccc(C)cc1
298.15 K, 101 kPa, x1 = 0.0478
  viscosity: 0.592 ± 0.005 mPa·s
298.15 K, 101 kPa, x1 = 0.1516
  viscosity: 0.548 ± 0.005 mPa·s
298.15 K, 101 kPa, x1 = 0.2496
  viscosity: 0.514 ± 0.004 mPa·s
298.15 K, 101 kPa, x1 = 0.3526
  viscosity: 0.483 ± 0.004 mPa·s
298.15 K, 101 kPa, x1 = 0.4453
  viscosity: 0.46 ± 0.004 mPa·s
298.15 K, 101 kPa, x1 = 0.492
  viscosity: 0.449 ± 0.004 mPa·s
298.15 K, 101 kPa, x1 = 0.5525
  viscosity: 0.437 ± 0.004 mPa·s
298.15 K, 101 kPa, x1 = 0.6515
  viscosity: 0.42 ± 0.004 mPa·s
298.15 K, 101 kPa, x1 = 0.7506
  viscosity: 0.406 ± 0.004 mPa·s
298.15 K, 101 kPa, x1 = 0.8511
  viscosity: 0.395 ± 0.004 mPa·s
298.15 K, 101 kPa, x1 = 0.9428
  viscosity: 0.388 ± 0.004 mPa·s
308.15 K, 101 kPa, x1 = 0.0478
  viscosity: 0.521 ± 0.004 mPa·s
308.15 K, 101 kPa, x1 = 0.1516
  viscosity: 0.49 ± 0.004 mPa·s
308.15 K, 101 kPa, x1 = 0.2496
  viscosity: 0.465 ± 0.004 mPa·s
308.15 K, 101 kPa, x1 = 0.3526
  viscosity: 0.442 ± 0.004 mPa·s
308.15 K, 101 kPa, x1 = 0.4453
  viscosity: 0.423 ± 0.004 mPa·s
308.15 K, 101 kPa, x1 = 0.492
  viscosity: 0.415 ± 0.004 mPa·s
308.15 K, 101 kPa, x1 = 0.5525
  viscosity: 0.404 ± 0.004 mPa·s
308.15 K, 101 kPa, x1 = 0.6515
  viscosity: 0.389 ± 0.004 mPa·s
308.15 K, 101 kPa, x1 = 0.7506
  viscosity: 0.376 ± 0.004 mPa·s
308.15 K, 101 kPa, x1 = 0.8511
  viscosity: 0.365 ± 0.004 mPa·s
308.15 K, 101 kPa, x1 = 0.9428
  viscosity: 0.356 ± 0.004 mPa·s

## COC(C)=O + CCCCCC
298.15 K, 101 kPa, x1 = 0.0412
  viscosity: 0.29 ± 0.004 mPa·s
298.15 K, 101 kPa, x1 = 0.1497
  viscosity: 0.289 ± 0.004 mPa·s
298.15 K, 101 kPa, x1 = 0.2521
  viscosity: 0.291 ± 0.004 mPa·s
298.15 K, 101 kPa, x1 = 0.3502
  viscosity: 0.295 ± 0.004 mPa·s
298.15 K, 101 kPa, x1 = 0.4406
  viscosity: 0.3 ± 0.004 mPa·s
298.15 K, 101 kPa, x1 = 0.4839
  viscosity: 0.303 ± 0.004 mPa·s
298.15 K, 101 kPa, x1 = 0.5505
  viscosity: 0.309 ± 0.004 mPa·s
298.15 K, 101 kPa, x1 = 0.6499
  viscosity: 0.32 ± 0.004 mPa·s
298.15 K, 101 kPa, x1 = 0.7508
  viscosity: 0.334 ± 0.004 mPa·s
298.15 K, 101 kPa, x1 = 0.8488
  viscosity: 0.351 ± 0.004 mPa·s
298.15 K, 101 kPa, x1 = 0.941
  viscosity: 0.37 ± 0.004 mPa·s
298.15 K, 101.3 kPa, x1 = 0.1056
  viscosity: 0.2969 ± 0.0032 mPa·s
298.15 K, 101.3 kPa, x1 = 0.2943
  viscosity: 0.2941 ± 0.0032 mPa·s
298.15 K, 101.3 kPa, x1 = 0.4514
  viscosity: 0.2996 ± 0.0032 mPa·s
298.15 K, 101.3 kPa, x1 = 0.5616
  viscosity: 0.3071 ± 0.0033 mPa·s
298.15 K, 101.3 kPa, x1 = 0.6895
  viscosity: 0.3189 ± 0.0034 mPa·s
298.15 K, 101.3 kPa, x1 = 0.7175
  viscosity: 0.3223 ± 0.0034 mPa·s
298.15 K, 101.3 kPa, x1 = 0.8224
  viscosity: 0.342 ± 0.0035 mPa·s
298.15 K, 101.3 kPa, x1 = 0.9171
  viscosity: 0.365 ± 0.0037 mPa·s
303.15 K, 101.3 kPa, x1 = 0.1069
  viscosity: 0.276 ± 0.0023 mPa·s
303.15 K, 101.3 kPa, x1 = 0.204
  viscosity: 0.2755 ± 0.0023 mPa·s
303.15 K, 101.3 kPa, x1 = 0.306
  viscosity: 0.2772 ± 0.0023 mPa·s
303.15 K, 101.3 kPa, x1 = 0.406
  viscosity: 0.2809 ± 0.0023 mPa·s
303.15 K, 101.3 kPa, x1 = 0.4998
  viscosity: 0.2857 ± 0.0023 mPa·s
303.15 K, 101.3 kPa, x1 = 0.602
  viscosity: 0.2937 ± 0.0024 mPa·s
303.15 K, 101.3 kPa, x1 = 0.6984
  viscosity: 0.3048 ± 0.0024 mPa·s
303.15 K, 101.3 kPa, x1 = 0.8014
  viscosity: 0.3165 ± 0.0025 mPa·s
303.15 K, 101.3 kPa, x1 = 0.8998
  viscosity: 0.3298 ± 0.0026 mPa·s
308.15 K, 101 kPa, x1 = 0.0412
  viscosity: 0.272 ± 0.004 mPa·s
308.15 K, 101 kPa, x1 = 0.1497
  viscosity: 0.271 ± 0.004 mPa·s
308.15 K, 101 kPa, x1 = 0.2521
  viscosity: 0.273 ± 0.004 mPa·s
308.15 K, 101 kPa, x1 = 0.3502
  viscosity: 0.276 ± 0.004 mPa·s
308.15 K, 101 kPa, x1 = 0.4406
  viscosity: 0.28 ± 0.004 mPa·s
308.15 K, 101 kPa, x1 = 0.4839
  viscosity: 0.283 ± 0.004 mPa·s
308.15 K, 101 kPa, x1 = 0.5505
  viscosity: 0.288 ± 0.004 mPa·s
308.15 K, 101 kPa, x1 = 0.6499
  viscosity: 0.297 ± 0.004 mPa·s
308.15 K, 101 kPa, x1 = 0.7508
  viscosity: 0.309 ± 0.004 mPa·s
308.15 K, 101 kPa, x1 = 0.8488
  viscosity: 0.323 ± 0.004 mPa·s
308.15 K, 101 kPa, x1 = 0.941
  viscosity: 0.339 ± 0.004 mPa·s

## CCCCOCC(C)O (stereo not drawn) + CCO
298.15 K, 101.33 kPa, x1 = 0.05
  viscosity: 1.229 ± 0.019 mPa·s
298.15 K, 101.33 kPa, x1 = 0.1
  viscosity: 1.344 ± 0.021 mPa·s
298.15 K, 101.33 kPa, x1 = 0.15
  viscosity: 1.462 ± 0.022 mPa·s
298.15 K, 101.33 kPa, x1 = 0.2
  viscosity: 1.585 ± 0.024 mPa·s
298.15 K, 101.33 kPa, x1 = 0.25
  viscosity: 1.705 ± 0.026 mPa·s
298.15 K, 101.33 kPa, x1 = 0.3
  viscosity: 1.813 ± 0.027 mPa·s
298.15 K, 101.33 kPa, x1 = 0.35
  viscosity: 1.918 ± 0.029 mPa·s
298.15 K, 101.33 kPa, x1 = 0.4
  viscosity: 2.022 ± 0.03 mPa·s
298.15 K, 101.33 kPa, x1 = 0.45
  viscosity: 2.12 ± 0.032 mPa·s
298.15 K, 101.33 kPa, x1 = 0.5
  viscosity: 2.211 ± 0.033 mPa·s
298.15 K, 101.33 kPa, x1 = 0.55
  viscosity: 2.305 ± 0.034 mPa·s
298.15 K, 101.33 kPa, x1 = 0.6
  viscosity: 2.384 ± 0.035 mPa·s
298.15 K, 101.33 kPa, x1 = 0.65
  viscosity: 2.469 ± 0.036 mPa·s
298.15 K, 101.33 kPa, x1 = 0.7
  viscosity: 2.536 ± 0.037 mPa·s
298.15 K, 101.33 kPa, x1 = 0.7499
  viscosity: 2.608 ± 0.038 mPa·s
298.15 K, 101.33 kPa, x1 = 0.7998
  viscosity: 2.674 ± 0.039 mPa·s
298.15 K, 101.33 kPa, x1 = 0.85
  viscosity: 2.737 ± 0.04 mPa·s
298.15 K, 101.33 kPa, x1 = 0.8998
  viscosity: 2.788 ± 0.041 mPa·s
298.15 K, 101.33 kPa, x1 = 0.95
  viscosity: 2.841 ± 0.042 mPa·s
308.15 K, 101.33 kPa, x1 = 0.05
  viscosity: 1.013 ± 0.016 mPa·s
308.15 K, 101.33 kPa, x1 = 0.1
  viscosity: 1.103 ± 0.017 mPa·s
308.15 K, 101.33 kPa, x1 = 0.15
  viscosity: 1.193 ± 0.019 mPa·s
308.15 K, 101.33 kPa, x1 = 0.2
  viscosity: 1.279 ± 0.02 mPa·s
308.15 K, 101.33 kPa, x1 = 0.25
  viscosity: 1.363 ± 0.021 mPa·s
308.15 K, 101.33 kPa, x1 = 0.3
  viscosity: 1.442 ± 0.022 mPa·s
308.15 K, 101.33 kPa, x1 = 0.35
  viscosity: 1.516 ± 0.023 mPa·s
308.15 K, 101.33 kPa, x1 = 0.4
  viscosity: 1.589 ± 0.024 mPa·s
308.15 K, 101.33 kPa, x1 = 0.45
  viscosity: 1.656 ± 0.025 mPa·s
308.15 K, 101.33 kPa, x1 = 0.5
  viscosity: 1.724 ± 0.026 mPa·s
308.15 K, 101.33 kPa, x1 = 0.55
  viscosity: 1.779 ± 0.027 mPa·s
308.15 K, 101.33 kPa, x1 = 0.6
  viscosity: 1.841 ± 0.028 mPa·s
308.15 K, 101.33 kPa, x1 = 0.65
  viscosity: 1.891 ± 0.028 mPa·s
308.15 K, 101.33 kPa, x1 = 0.7
  viscosity: 1.935 ± 0.029 mPa·s
308.15 K, 101.33 kPa, x1 = 0.7499
  viscosity: 1.983 ± 0.03 mPa·s
308.15 K, 101.33 kPa, x1 = 0.7998
  viscosity: 2.035 ± 0.03 mPa·s
308.15 K, 101.33 kPa, x1 = 0.85
  viscosity: 2.067 ± 0.031 mPa·s
308.15 K, 101.33 kPa, x1 = 0.8998
  viscosity: 2.099 ± 0.031 mPa·s
308.15 K, 101.33 kPa, x1 = 0.95
  viscosity: 2.135 ± 0.032 mPa·s
318.15 K, 101.33 kPa, x1 = 0.05
  viscosity: 0.846 ± 0.014 mPa·s
318.15 K, 101.33 kPa, x1 = 0.1
  viscosity: 0.915 ± 0.015 mPa·s
318.15 K, 101.33 kPa, x1 = 0.15
  viscosity: 0.982 ± 0.016 mPa·s
318.15 K, 101.33 kPa, x1 = 0.2
  viscosity: 1.046 ± 0.017 mPa·s
318.15 K, 101.33 kPa, x1 = 0.25
  viscosity: 1.108 ± 0.017 mPa·s
318.15 K, 101.33 kPa, x1 = 0.3
  viscosity: 1.166 ± 0.018 mPa·s
318.15 K, 101.33 kPa, x1 = 0.35
  viscosity: 1.22 ± 0.019 mPa·s
318.15 K, 101.33 kPa, x1 = 0.4
  viscosity: 1.273 ± 0.02 mPa·s
318.15 K, 101.33 kPa, x1 = 0.45
  viscosity: 1.321 ± 0.02 mPa·s
318.15 K, 101.33 kPa, x1 = 0.5
  viscosity: 1.365 ± 0.021 mPa·s
318.15 K, 101.33 kPa, x1 = 0.55
  viscosity: 1.409 ± 0.022 mPa·s
318.15 K, 101.33 kPa, x1 = 0.6
  viscosity: 1.445 ± 0.022 mPa·s
318.15 K, 101.33 kPa, x1 = 0.65
  viscosity: 1.49 ± 0.023 mPa·s
318.15 K, 101.33 kPa, x1 = 0.7
  viscosity: 1.517 ± 0.023 mPa·s
318.15 K, 101.33 kPa, x1 = 0.7499
  viscosity: 1.55 ± 0.024 mPa·s
318.15 K, 101.33 kPa, x1 = 0.7998
  viscosity: 1.58 ± 0.024 mPa·s
318.15 K, 101.33 kPa, x1 = 0.85
  viscosity: 1.609 ± 0.025 mPa·s
318.15 K, 101.33 kPa, x1 = 0.8998
  viscosity: 1.633 ± 0.025 mPa·s
318.15 K, 101.33 kPa, x1 = 0.95
  viscosity: 1.647 ± 0.025 mPa·s
